Values quoted from earlier work in patent publication US20170224670A1, “Drug Combination to Treat Melanoma” (Exelixis, Inc., priority 2014, published 2017).

Test system: BRAF mutation-associated melanomas
Settings: from initial use, patients taking the drug

CCCS(=O)(=O)Nc1ccc(F)c(C(=O)c2c[nH]c3ncc(-c4ccc(Cl)cc4)cc23)c1F [vemurafenib]
Time to development of resistance, on average: ≤ 7 months
